Converted amounts (≈) assume the structure as drawn. Where a SMILES comes first, the peptide text is derived from it.
What was measured:
[1] = system: B. subtilis; type: cell-based, Bacillus subtilis (ATCC, 11774); details: micro-broth dilution, 3 h peptide treatment then MHB 18 h, 37 °C, OD 600 nm
Text: (§1) The microbial strains used in this study were Bacillus subtilis (ATCC, 11774), Candida albicans (TIMM, 1768), Enterococcus faecalis (ATCC, 33186), Escherichia coli (ATCC, 11775), Klebsiella pneumoniae (ATCC, 13883), Methicillin-resistant Staphylococcus aureus (ATCC, BAA-41), Pseudomonas aeruginosa (ATCC, 10145), Salmonella enterica (ATCC, 14028), Serratia marcescens (ATCC, 13880), Staphylococcus aureus (ATCC, 25923) and Vibrio parahaemolyticus (ATCC, 17802). All microbial strains were cultivated overnight at 37 °C and 200 rpm, then subcultured and incubated for 3 h under the same incubation conditions to obtain the mid-logarithmic growth phase. The cultivated cells were washed twice with 10 mM Tris–HCl containing 5 mM D-glucose at pH 7.4 and suspended in the same buffer to be used in different assays, as previously described.
(§2) As a conclusive quantitative assessment, broth microtiter assay was used to determine the MIC values of each cryptide against B. subtilis, MRSA, S. enterica, P. aeruginosa, V. parahaemolyticus and C. albicans by following the guidelines of the Clinical and Laboratory Standards Institute (CLSI)[67], with slight modifications. Eighty microliters of 5 × 10^4 CFU/ml of each pathogen were dispensed into a 96-well polypropylene microtiter plate. The wells were then treated with 20 µl of serially diluted cryptides for 3 h at 37 °C. Gentamicin was used for positive controls at 0.2 mg/ml while an equivalent volume of acidified water was used for negative controls. The plates were then topped up with a final concentration of 1 × Mueller Hinton Broth (MHB) and incubated for 18 h under the same incubation conditions. MIC was detected as the lowest concentration of each cryptide that prevents the optically detectable microbial growth at OD = 600 nm.

[2] = system: S. enterica; type: cell-based, Salmonella enterica (ATCC, 14028); details: micro-broth dilution, 3 h peptide treatment then MHB 18 h, 37 °C, OD 600 nm
Text: as §1, §2

[3] = type: cell-based; details: 24 h, serum-free medium, MTT, 37 °C, 5% CO2; mean ± SD; read-out: IC50 (µM) A459
Experimental: (§3) The used mammalian cell lines in our study were colorectal adenocarcinoma (Caco2, ATCC-HTB-37), colorectal carcinoma (HCT 116, ATCC-CCL-247), lung carcinoma (A549, ATCC- CCL-185), cervical cancer cells (HeLa, ATCC-CCL-2), neuroblastoma (SH-SY5Y, ATCC- CRL-2266), rhabdomyosarcoma (RD, ATCC- CCL-136) and human embryonic kidney cells (HEK 293, ATCC- CRL-1573). All the cells were maintained into Dulbecco’s Modified Eagle’s Medium (DMEM) supplemented with 10% heat-inactivated fetal bovine serum, 2 mM L-Glutamine, 100 U/ml penicillin–streptomycin (Pen/Strep) at 37 °C in 5% CO2 humidified incubator.
(§4) First, the cytotoxic effect of 24 h serum deprivation on all the selected cell lines was evaluated by MTT assay, following standard protocols. Briefly, cells were seeded and maintained at 37 °C and 5% CO2 in 24-well plates until they reached 75–80% confluency (zero time). Following washing twice with 1X PBS, cells were incubated in a serum-free medium for 24 h, under the same incubation conditions. The cell viability percentages were calculated and compared to zero time as 100% viability to nullify any possible effects of serum deprivation. Thence, the cell viability percentage of each cell line in response to 24 h treatment with different concentrations of each cryptide in serum-free medium was calculated. […] All the measured cell viability percentages were normalised against the corresponding negative controls.

[4] = system: RD; type: cell-based; details: 24 h, serum-free medium, MTT, 37 °C, 5% CO2; mean ± SD
Experimental: as §3, §4

[5] = system: HEK-293; assay: MTT cytotoxicity on normal cells; type: cell-based, human; details: 25 µM (highest tested concentration), 24 h, serum-free medium
Experimental: as §3, §4

[6] = system: human RBCs; assay: Hemolytic assay; type: cell-based; details: 2% RBCs in PBS, 2 h, 37 °C, supernatant at 450 nm, 0.1% TritonX-100 = maximum; highest tested concentration 100 µM
Experimental: All methods were carried out in accordance with the Declaration of Helsinki, and the Research Ethics Committee approved all experimental protocols at Sunway University (approval no. PGSUREC2020/005). A human blood sample was collected from a healthy person for this assay upon obtaining informed consent. The fresh blood sample was centrifuged at 3700 g for 5 min at RT. The supernatant (serum) was removed and red blood cells (RBCs) were washed three times with 1X PBS and diluted to a final concentration of 2% (PBS—137 mM NaCl, 2.7 mM KCl, 10 mM Na2HPO4, 1.76 mM KH2PO4). Cells were stored at 4 °C, and used within 5 h.
The hemolytic activities of the identified cryptides were evaluated as previously described. The prepared RBCs were treated with different peptide concentrations for 2 h at 37 °C. The treated RBCs were centrifuged, under the same centrifugation conditions, and the supernatants were transferred to a 96-well plate and measured at 450 nm.

[7] = system: E. coli K-1; assay: Radial diffusion assay; type: cell-based, Escherichia coli (ATCC, 11775); details: 5 µl of 500 µM per 3 mm well, 37 °C, mean ± SD
Text: as §1
The antimicrobial activity spectra of the selected cryptides were screened against all the mentioned microbial pathogens, except V. parahaemolyticus, by radial diffusion assay as previously described, with slight modifications. […] The plates were then incubated for 18 h, and the antimicrobial activities were measured in the absolute unit (AU), as previously described. […]
plate. The plates were then incubated for 12 h at 37 °C and antimicrobial activities were measured in the term of absolute unit (A.U). […]

Molecule | MIC (µM) B. subtilis [1] [µM] | MIC (µM) S. enterica [2] [µM] | IC50 [3] [µM] | IC50 [4] [µM] | Cell death of HEK-293 [5] | Hemolysis of human RBCs at 100 µM [6] [%] | Antimicrobial activity (inhibition zone) E. coli K-1 [7] [A.U.]
CC(C)C[C@H](NC(=O)[C@H](CCCNC(=N)N)NC(=O)[C@H](Cc1c[nH]c2ccccc12)NC(=O)[C@H](CCCNC(=N)N)NC(=O)[C@H](CC(C)C)NC(=O)[C@@H](N)Cc1ccccc1)C(=O)N[C@@H](CCCCN)C(=O)N[C@@H](Cc1ccccc1)C(=O)N[C@@H](CCCCN)C(=O)N[C@@H](CO)C(=O)N[C@@H](CCCCN)C(=O)N[C@H](C(=O)N[C@@H](Cc1c[nH]c2ccccc12)C(=O)N[C@@H](CS)C(=O)N1CCC[C@H]1C(=O)O)C(C)C [AD7] (H-FLRWRLKFKSKVWCP-OH) | 0.39 (≈ 0.778 µg/mL) | 0.78 (≈ 1.56 µg/mL) | 8.5 ± 0.6 | 97.8 ± 0.2 | less than 10% | 26.5 | –
CSCC[C@H](NC(=O)[C@H](CCCCN)NC(=O)CNC(=O)[C@H](CCCCN)NC(=O)[C@H](Cc1ccc(O)cc1)NC(=O)[C@H](CC(N)=O)NC(=O)[C@H](CC(C)C)NC(=O)[C@H](CCC(N)=O)NC(=O)[C@H](CC(C)C)NC(=O)[C@@H](N)CCCNC(=N)N)C(=O)N[C@@H](Cc1c[nH]c2ccccc12)C(=O)N[C@@H](CS)C(=O)N1CCC[C@H]1C(=O)NCC(=O)N[C@@H](Cc1c[nH]c2ccccc12)C(=O)O [AD11] (H-RLQLNYKGKMWCPGW-OH) | 0.78 (≈ 1.47 µg/mL) | 1.56 (≈ 2.93 µg/mL) | 11.1 ± 0.7 | 19.2 ± 0.9 | less than 10% | 20.7 | –
RHCLRSKRPPNVCPH [AD4, cationic cryptide from P. vannamei precursor DN34505 (Pl-crustin 2), chemically synthesised] | 1.56 | 3.12 | 8.8 ± 1.1 | 15 ± 0.8 | less than 10% | – | 7.7 ± 1

Reference: article PMC10482825 (Scientific Reports, 2023)
